We go through 28 compounds from patent publication US6638956B2, “Pesticidal 1-arylpyrazoles” (Rhone-Poulenc, Inc., priority 1996, dated 2003).

Tested on in one series: not given
Settings: not given
On to `CC[S+]([O-])c1c(C=NO)nn(-c2c(Cl)cc(C(F)(F)F)cc2Cl)c1N` (stereo not shown) [Compound 5, 5-Amino-1-[2,6-dichloro-4-(trifluoromethyl)phenyl]-4-ethylsulfinyl-1H-pyrazole-3-carboxaldehyde oxime], for which the melting point turned out to be 195 °C.

Regarding `C[S+]([O-])c1c(C(=N)NO)nn(-c2c(Cl)cc(C(F)(F)F)cc2Cl)c1NCCC#N` (stereo not shown) [Compound 58, 5-[2-(Cyano)ethylamino]-1-[2,6-dichloro-4-(trifluoromethyl)phenyl]-N-hydroxy-4-methylsulfinyl-1H-pyrazole-3-carboximidamide], the melting point was 175 to 176 °C.

On to `CCSc1c(C=NO)nn(-c2c(Cl)cc(C(F)(F)F)cc2Cl)c1C` [Compound 33, 1-[2,6-Dichloro-4-(trifluoromethyl)phenyl]-4-ethylthio-5-methyl-1H-pyrazole-3-carboxaldehyde oxime], for which the melting point was 155 to 157 °C.

`N=C(NO)c1nn(-c2c(Cl)cc(C(F)(F)F)cc2Cl)c(N)c1S(=O)(=O)CCF` [Compound 52, 5-Amino-1-[2,6-dichloro-4-(trifluoromethyl)phenyl]-N-hydroxy-4-(2-fluoroethylsulfonyl)-1H-pyrazole-3-carboximidamide] displayed a melting point of 107 to 111 °C.

On to `CSc1c(C=NO)nn(-c2c(Cl)cc(C(F)(F)F)cc2Cl)c1N(C)C` [Compound 36, 1-[2,6-Dichloro-4-(trifluoromethyl)phenyl]-5-dimethylamino-4-methylthio-1H-pyrazole-3-carboxaldehyde oxime], for which the melting point was 178 to 181 °C.

Take `N=C(NO)c1nn(-c2c(Cl)cc(C(F)(F)F)cc2Cl)c(C=NO)c1SC(F)(F)F` [Compound 23, 1-[2,6-Dichloro-4-(trifluoromethyl)phenyl]-N-hydroxy-5-hydroxyiminomethyl-4-trifluoromethylthio-1H-pyrazole-3-carboximidamide]: the melting point lay in the range of 68 to 72 °C.

As for `Cc1ccccc1C(=O)ON=Cc1nn(-c2c(Cl)cc(C(F)(F)F)cc2Cl)c(N)c1[S+](C)[O-]` (stereo not shown) [Compound 11, 5-Amino-1-[2,6-dichloro-4-(trifluoromethyl)phenyl]-4-methylsulfinyl-1H-pyrazole-3-carboxaldehyde O-(2-methylbenzoyl)oxime], the melting point is 107 to 110 °C.

For `CSc1c(C=NOC(C)=O)nn(-c2c(Cl)cc(C(F)(F)F)cc2Cl)c1N` [Compound 14, 5-Amino-1-[2,6-dichloro-4-(trifluoromethyl)phenyl]-4-methylthio-1H-pyrazole-3-carboxaldehyde O-(acetyl)oxime], the melting point lay in the range of 205.5 to 206.5 °C.

With `C[S+]([O-])C1=C(N)N(c2c(Br)cc(C(F)(F)F)cc2Br)N(O)C1C(=N)N` (stereo not shown) [Compound 61, 5-Amino-1-[2,6-dibromo-4-(trifluoromethyl)phenyl]-4-methylsulfinyl-2-N-hydroxy-1H-pyrazole-3-carboximidamide], the melting point is 240 to 241 °C.

On to `C[S+]([O-])c1c(C=NO)nn(-c2c(Cl)cc(OC(F)(F)F)cc2Cl)c1N` (stereo not shown) [Compound 4, 5-Amino-1-[2,6-dichloro-4-(trifluoromethoxy)phenyl]-4-methylsulfinyl-1H-pyrazole-3-carboxaldehyde oxime], for which the melting point lay in the range of 144 to 146 °C.

Take `CNc1c([S+](C)[O-])c(C(=N)NO)nn1-c1c(Cl)cc(C(F)(F)F)cc1Cl` (stereo not shown) [Compound 55, 1-[2,6-Dichloro-4-(trifluoromethyl)phenyl]-N-hydroxy-5-methylamino-4-methylsulfinyl-1H-pyrazole-3-carboximidamide]: the melting point lay in the range of 191 to 192 °C.

The compound `CSc1c(C=NO)nn(-c2c(Cl)cc(C(F)(F)F)cc2Cl)c1N` [Compound 8, 5-Amino-1-[2,6-dichloro-4-(trifluoromethyl)phenyl]-4-methylthio-1H-pyrazole-3-carboxaldehyde oxime] displayed a melting point of 179 to 181 °C.

In the case of `CSc1c(C(=N)NO)nn(-c2c(Cl)cc(C(F)(F)F)cc2Cl)c1N` [Compound 47, 5-Amino-1-[2,6-dichloro-4-(trifluoromethyl)phenyl]-N-hydroxy-4-methylthio-1H-pyrazole-3-carboximidamide], the melting point was 207 to 208 °C.

Take `C[S+]([O-])c1c(C=NO)nn(-c2ncc(C(F)(F)F)cc2Cl)c1N` (stereo not shown) [Compound 32, 5-Amino-1-[3-chloro-5-(trifluoromethyl)-2-pyridinyl]-4-methylsulfinyl-1H-pyrazole-3-carboxaldehyde oxime]: the melting point was in the range of 195.5 to 196.5 °C.

The compound `C[S+]([O-])c1c(C(=N)NO)nn(-c2c(Cl)cc(C(F)(F)F)cc2Cl)c1NCCS(=O)(=O)c1ccccc1` (stereo not shown) [Compound 60, 1-[2,6-Dichloro-4-(trifluoromethyl)phenyl]-4-methylsulfinyl-5-[2-(phenylsulfonyl)ethylamino]-N-hydroxy-1H-pyrazole-3-carboximidamide] had a melting point of 131 to 134 °C.

Turning to `CC(=NO)c1nn(-c2c(Cl)cc(C(F)(F)F)cc2Cl)c(N)c1[S+](C)[O-]` (stereo not shown) [Compound 39, 3-Acetyl-5-amino-1-[2,6-dichloro-4-(trifluoromethyl)phenyl]-4-methylsulfinyl-1H-pyrazole oxime], the melting point was in the range of 68 to 71 °C.

As to `CNc1c([S+](C)[O-])c(C=NO)nn1-c1c(Cl)cc(C(F)(F)F)cc1Cl` (stereo not shown) [Compound 3, 1-[2,6-Dichloro-4-(trifluoromethyl)phenyl]-5-methylamino-4-methylsulfinyl-1H-pyrazole-3-carboxaldehyde oxime], the melting point came to 162 °C.

Compound `CNC(=O)ON=Cc1nn(-c2c(Cl)cc(C(F)(F)F)cc2Cl)c(N)c1[S+](C)[O-]` (stereo not shown) yielded a melting point of 146 to 147 °C.

For `Nc1c(SC(F)F)c(C=NO)nn1-c1c(Cl)cc(C(F)(F)F)cc1Cl` [Compound 7, 5-Amino-1-[2,6-dichloro-4-(trifluoromethyl)phenyl]-4-difluoromethylthio-1H-pyrazole-3-carboxaldehyde oxime], the melting point lay within 146 to 152 °C.

As for `Cc1c([S+](C)[O-])c(C=NO)nn1-c1c(Cl)cc(C(F)(F)F)cc1Cl` (stereo not shown) [Compound 30, 1-[2,6-Dichloro-4-(trifluoromethyl)phenyl]-5-methyl-4-methylsulfinyl-1H-pyrazole-3-carboxaldehyde oxime], the melting point was 210 to 214 °C.

`C[S+]([O-])c1c(C(=N)NO)nn(-c2ncc(C(F)(F)F)cc2Cl)c1N` (stereo not shown) [Compound 54, 5-Amino-1-[3-chloro-5-(trifluoromethyl)-2-pyridinyl]-4-methylsulfinyl-N-hydroxy-1H-pyrazole-3-carboximidamide]: the melting point was 234 to 235 °C.

On to `CS(=O)(=O)c1c(C(=N)NO)nn(-c2c(Cl)cc(C(F)(F)F)cc2Cl)c1N` [Compound 46, 5-Amino-1-[2,6-dichloro-4-(trifluoromethyl)phenyl]-N-hydroxy-4-methylsulfonyl-1H-pyrazole-3-carboximidamide], for which the melting point lay within 109 to 111 °C.

As to `C[S+]([O-])c1c(C=NO)nn(-c2c(Cl)cc(C(F)(F)F)cc2Cl)c1N` (stereo not shown) [Compound 1, 5-Amino-1-[2,6-dichloro-4-(trifluoromethyl)phenyl]-4-methylsulfinyl-1H-pyrazole-3-carboxaldehyde oxime], the melting point is 219 to 221 °C (dec.).

Consider `Nc1c(SC(F)(F)F)c(C=NO)nn1-c1c(Cl)cc(C(F)(F)F)cc1Cl` [Compound 6, 5-Amino-1-[2,6-dichloro-4-(trifluoromethyl)phenyl]-4-trifluoromethylthio-1H-pyrazole-3-carboxaldehyde oxime], for which the melting point lay within 163 to 169 °C.

Regarding `C#CCNc1c([S+](C)[O-])c(C(=N)NO)nn1-c1c(Cl)cc(C(F)(F)F)cc1Cl` (stereo not shown) [Compound 67, 1-[2,6-Dichloro-4-(trifluoromethyl)phenyl]-4-methylsulfinyl-5-[(prop-2-ynyl)amino]-N-hydroxy-1H-pyrazole-3-carboximidamide], the melting point was 194 to 196 °C.

`CC(=O)ON=Cc1nn(-c2c(Cl)cc(C(F)(F)F)cc2Cl)c(N)c1[S+](C)[O-]` (stereo not shown) [Compound 10, 5-Amino-1-[2,6-dichloro-4-(trifluoromethyl)phenyl]-4-methylsulfinyl-1H-pyrazole-3-carboxaldehyde O-(acetyl)oxime] registered a melting point of 130 to 134 °C.

`Nc1c(C(F)(F)F)c(C=NO)nn1-c1c(Cl)cc(C(F)(F)F)cc1Cl` [Compound 38, 5-Amino-1-[2,6-dichloro-4-(trifluoromethyl)phenyl]-4-trifluoromethyl-1H-pyrazole-3-carboxaldehyde oxime] gave a melting point of 136 to 146 °C.

The subject of another series is Lucilia sericata, sleep blow fly. The conditions noted are these: disclosed in WO 92/13451; cited from earlier work.
On to `N#Cc1nc(-c2c(C=NO)nn(-c3c(Cl)cc(C(F)(F)F)cc3Cl)c2Cl)[nH]c1C#N` [5-chloro-1-[2,6-dichloro-4-(trifluoromethyl)phenyl]-4-(4,5-dicyano-1H-imadazol-2-yl)-3-hydroxyiminomethyl-1H-pyrazole], for which the “activity against Lucilia sericata” value is given as “activity against a single species”.

By melting point is commonly meant the temperature, or range, at which the solid turns liquid.
